Experimental data taken from PubChem BioAssay AID270 (DTP/NCI, 2004).
Where “and” joins values, the source holds several entries; their conditions need not be identical. Equal entries are not always repeated. Records with an inconclusive call do not appear.

Test system: BDF1 mice, s.c. Lewis lung carcinoma, T/C %
Test: NCI In Vivo Anticancer Drug Screen. Data for tumor model Lewis Lung Carcinoma (subcutaneous) in B6D2F1 (BDF1) mice
Outline: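 First, mice carry a transplantable tumor. Next, groups receive either compound or vehicle. Finally, survival or tumor dimensions in the dosed animals are divided by the corresponding control figure.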

[1] = endpoint: mean tumor weight, dose: 3.13 mg/kg/injection, schedule: Q01DX011 (ip), vehicle: saline, higher = larger tumour
[2] = endpoint: mean tumor weight, dose: 6.25 mg/kg/injection, schedule: Q01DX011 (ip), vehicle: saline, higher = larger tumour
[3] = endpoint: mean tumor weight, dose: 12.5 mg/kg/injection, schedule: Q01DX011 (ip), vehicle: saline, higher = larger tumour
[4] = endpoint: mean tumor weight, dose: 50.0 mg/kg/injection, schedule: Q01DX011 (ip), vehicle: other, higher = larger tumour

## O=C(O)CCCc1ccc(N(CCCl)CCCl)cc1
[1]
  T/C: 66 % of control
[2]
  T/C: 54 % of control
endpoint: mean tumor weight, dose: 7.5 mg/kg/injection, schedule: Q01DX011 (ip), vehicle: carboxymethylcellulose (CMC), higher = larger tumour
  T/C: 55 % of control
[3]
  T/C: 26 % of control
endpoint: median survival time, dose: 1.0 mg/kg/injection, schedule: Q01DX009 (ip), vehicle: saline with Tween-80, higher = longer survival
  T/C: 113 % of control
endpoint: median survival time, dose: 2.0 mg/kg/injection, schedule: Q01DX009 (ip), vehicle: saline with Tween-80, higher = longer survival
  T/C: 101 % of control and 124 % of control
endpoint: median survival time, dose: 4.0 mg/kg/injection, schedule: Q01DX001 (ip), vehicle: saline with Tween-80, higher = longer survival
  T/C: 94 % of control
endpoint: median survival time, dose: 8.0 mg/kg/injection, schedule: Q01DX001 (ip), vehicle: saline with Tween-80, higher = longer survival
  T/C: 112 % of control
endpoint: median survival time, dose: 8.0 mg/kg/injection, schedule: Q01DX009 (ip), vehicle: saline with Tween-80, higher = longer survival
  T/C: 110 % of control and 114 % of control
endpoint: median survival time, dose: 16.0 mg/kg/injection, schedule: Q01DX001 (ip), vehicle: saline with Tween-80, higher = longer survival
  T/C: 107 % of control
endpoint: median survival time, dose: 32.0 mg/kg/injection, schedule: Q01DX001 (ip), vehicle: saline with Tween-80, higher = longer survival
  T/C: 89 % of control

## COC1C(OC(=O)c2ccc(C)[nH]2)C(O)C(Oc2ccc3c(O)c(NC(=O)c4ccc(O)c(CC=C(C)C)c4)c(=O)oc3c2Cl)OC1(C)C (stereo unspecified)
endpoint: median survival time, dose: 0.38 mg/kg/injection, schedule: Q01DX009 (ip), vehicle: other, higher = longer survival
  T/C: 113 % of control
endpoint: median survival time, dose: 0.75 mg/kg/injection, schedule: Q01DX009 (ip), vehicle: other, higher = longer survival
  T/C: 91 % of control
endpoint: median survival time, dose: 3.0 mg/kg/injection, schedule: Q01DX007 (ip), vehicle: other, higher = longer survival
  T/C: 88 % of control
endpoint: median survival time, dose: 3.0 mg/kg/injection, schedule: Q01DX009 (ip), vehicle: other, higher = longer survival
  T/C: 117 % of control
endpoint: median survival time, dose: 6.0 mg/kg/injection, schedule: Q01DX007 (ip), vehicle: other, higher = longer survival
  T/C: 93 % of control
endpoint: median survival time, dose: 6.0 mg/kg/injection, schedule: Q01DX009 (ip), vehicle: other, higher = longer survival
  T/C: 98 % of control
endpoint: median survival time, dose: 12.0 mg/kg/injection, schedule: Q01DX007 (ip), vehicle: other, higher = longer survival
  T/C: 98 % of control
endpoint: median survival time, dose: 24.0 mg/kg/injection, schedule: Q01DX007 (ip), vehicle: other, higher = longer survival
  T/C: 91 % of control
endpoint: median survival time, dose: 24.0 mg/kg/injection, schedule: Q01DX009 (ip), vehicle: other, higher = longer survival
  T/C: 88 % of control
endpoint: median survival time, dose: 25.0 mg/kg/injection, schedule: Q01DX009 (ip), vehicle: other, higher = longer survival
  T/C: 90 % of control
endpoint: median survival time, dose: 48.0 mg/kg/injection, schedule: Q01DX007 (ip), vehicle: other, higher = longer survival
  T/C: 107 % of control
endpoint: median survival time, dose: 50.0 mg/kg/injection, schedule: Q01DX009 (ip), vehicle: other, higher = longer survival
  T/C: 105 % of control

## CC1(C)N=C(N)N=C(N)N1c1cccc(Br)c1
[4]
  T/C: 16 % of control

## S=c1nc[nH]c2c1ncn2C1CCCO1 (stereo unspecified)
endpoint: mean tumor weight, dose: 12.5 mg/kg/injection, schedule: Q01DX011 (ip), vehicle: other, higher = larger tumour
  T/C: 36 % of control
endpoint: mean tumor weight, dose: 25.0 mg/kg/injection, schedule: Q01DX011 (ip), vehicle: other, higher = larger tumour
  T/C: 86 % of control
[4]
  T/C: 91 % of control
endpoint: mean tumor weight, dose: 100.0 mg/kg/injection, schedule: Q01DX011 (ip), vehicle: other, higher = larger tumour
  T/C: 67 % of control

## O=NN(CCCl)C(=O)Nc1ccc2c(c1)OCO2
endpoint: median survival time, dose: 3.13 mg/kg/injection, schedule: Q01DX009 (ip), vehicle: saline with Tween-80, higher = longer survival
  T/C: 98 % of control
endpoint: median survival time, dose: 6.25 mg/kg/injection, schedule: Q01DX009 (ip), vehicle: saline with Tween-80, higher = longer survival
  T/C: 116 % of control
endpoint: median survival time, dose: 12.5 mg/kg/injection, schedule: Q01DX009 (ip), vehicle: saline with Tween-80, higher = longer survival
  T/C: 102 % of control

## CCO/C=C1\SC(=S)N(c2cccc(OC)c2)C1=O
endpoint: median survival time, dose: 50.0 mg/kg/injection, schedule: Q01DX001 (ip), vehicle: Klucel (hydroxypropylcellulose) (HPC), higher = longer survival
  T/C: 101 % of control
endpoint: median survival time, dose: 100.0 mg/kg/injection, schedule: Q01DX001 (ip), vehicle: Klucel (hydroxypropylcellulose) (HPC), higher = longer survival
  T/C: 104 % of control
endpoint: median survival time, dose: 200.0 mg/kg/injection, schedule: Q01DX001 (ip), vehicle: Klucel (hydroxypropylcellulose) (HPC), higher = longer survival
  T/C: 102 % of control
endpoint: median survival time, dose: 400.0 mg/kg/injection, schedule: Q01DX001 (ip), vehicle: Klucel (hydroxypropylcellulose) (HPC), higher = longer survival
  T/C: 101 % of control

## COc1ccc(/C=C/c2ccc3ccccc3[n+]2C)c(OC)c1OC
endpoint: median survival time, dose: 0.31 mg/kg/injection, schedule: Q01DX009 (ip), vehicle: Klucel (hydroxypropylcellulose) (HPC), higher = longer survival
  T/C: 117 % of control
endpoint: median survival time, dose: 0.62 mg/kg/injection, schedule: Q01DX009 (ip), vehicle: Klucel (hydroxypropylcellulose) (HPC), higher = longer survival
  T/C: 108 % of control
endpoint: median survival time, dose: 1.25 mg/kg/injection, schedule: Q01DX009 (ip), vehicle: Klucel (hydroxypropylcellulose) (HPC), higher = longer survival
  T/C: 107 % of control
endpoint: median survival time, dose: 2.5 mg/kg/injection, schedule: Q01DX009 (ip), vehicle: Klucel (hydroxypropylcellulose) (HPC), higher = longer survival
  T/C: 89 % of control and 92 % of control

## O=c1c(O)c(-c2ccccc2)oc2ccccc12
endpoint: mean tumor weight, dose: 0.19 mg/kg/injection, schedule: Q01DX011 (ip), vehicle: saline, higher = larger tumour
  T/C: 79 % of control
endpoint: mean tumor weight, dose: 0.39 mg/kg/injection, schedule: Q01DX011 (ip), vehicle: saline, higher = larger tumour
  T/C: 50 % of control
endpoint: mean tumor weight, dose: 0.78 mg/kg/injection, schedule: Q01DX011 (ip), vehicle: saline, higher = larger tumour
  T/C: 105 % of control
endpoint: mean tumor weight, dose: 1.56 mg/kg/injection, schedule: Q01DX011 (ip), vehicle: saline, higher = larger tumour
  T/C: 52 % of control and 58 % of control
[1]
  T/C: 78 % of control
[2]
  T/C: 97 % of control
endpoint: mean tumor weight, dose: 12.5 mg/kg/injection, schedule: Q01DX010 (ip), vehicle: saline, higher = larger tumour
  T/C: 67 % of control
[3]
  T/C: 103 % of control
endpoint: mean tumor weight, dose: 25.0 mg/kg/injection, schedule: Q01DX010 (ip), vehicle: saline, higher = larger tumour
  T/C: 82 % of control
endpoint: mean tumor weight, dose: 50.0 mg/kg/injection, schedule: Q01DX010 (ip), vehicle: saline, higher = larger tumour
  T/C: 104 % of control
endpoint: mean tumor weight, dose: 100.0 mg/kg/injection, schedule: Q01DX010 (ip), vehicle: saline, higher = larger tumour
  T/C: 83 % of control

## Nc1ccc(O)cc1
endpoint: mean tumor weight, dose: 37.5 mg/kg/injection, schedule: Q01DX011 (ip), vehicle: saline, higher = larger tumour
  T/C: 96 % of control
endpoint: mean tumor weight, dose: 300.0 mg/kg/injection, schedule: Q01DX011 (ip), vehicle: saline, higher = larger tumour
  T/C: 26 % of control

## Nc1nc(=S)c2[nH]c(N=Nc3ccc(S(=O)(=O)Nc4ncccn4)cc3)nc2[nH]1
endpoint: median survival time, dose: 0.78 mg/kg/injection, schedule: Q01DX009 (ip), vehicle: Klucel (hydroxypropylcellulose) (HPC), higher = longer survival
  T/C: 99 % of control
endpoint: median survival time, dose: 1.56 mg/kg/injection, schedule: Q01DX009 (ip), vehicle: Klucel (hydroxypropylcellulose) (HPC), higher = longer survival
  T/C: 101 % of control
endpoint: median survival time, dose: 3.12 mg/kg/injection, schedule: Q01DX009 (ip), vehicle: Klucel (hydroxypropylcellulose) (HPC), higher = longer survival
  T/C: 95 % of control
endpoint: median survival time, dose: 6.25 mg/kg/injection, schedule: Q01DX009 (ip), vehicle: Klucel (hydroxypropylcellulose) (HPC), higher = longer survival
  T/C: 105 % of control

## O=NN(CCCl)C(=O)NC1CCC(NC(=O)N(CCCl)N=O)CC1 (stereo unspecified)
endpoint: median survival time, dose: 30.0 mg/kg/injection, schedule: Q04DX004 (ip), vehicle: saline with Tween-80, higher = longer survival
  T/C: 123 % of control
endpoint: median survival time, dose: 45.0 mg/kg/injection, schedule: Q01DX001 (ip), vehicle: saline with Tween-80, higher = longer survival
  T/C: 109 % of control
endpoint: median survival time, dose: 45.0 mg/kg/injection, schedule: Q04DX004 (ip), vehicle: saline with Tween-80, higher = longer survival
  T/C: 156 % of control
endpoint: median survival time, dose: 75.0 mg/kg/injection, schedule: Q04DX004 (ip), vehicle: saline with Tween-80, higher = longer survival
  T/C: 104 % of control and 122 % of control
endpoint: median survival time, dose: 84.0 mg/kg/injection, schedule: Q01DX001 (ip), vehicle: saline with Tween-80, higher = longer survival
  T/C: 174 % of control
endpoint: median survival time, dose: 90.0 mg/kg/injection, schedule: Q07DX002 (ip), vehicle: saline with Tween-80, higher = longer survival
  T/C: 117 % of control and 222 % of control
endpoint: median survival time, dose: 120.0 mg/kg/injection, schedule: Q07DX002 (ip), vehicle: saline with Tween-80, higher = longer survival
  T/C: 116 % of control
endpoint: median survival time, dose: 150.0 mg/kg/injection, schedule: Q07DX002 (ip), vehicle: saline with Tween-80, higher = longer survival
  T/C: 105 % of control
endpoint: median survival time, dose: 171.0 mg/kg/injection, schedule: Q01DX001 (ip), vehicle: saline with Tween-80, higher = longer survival
  T/C: 179 % of control
endpoint: median survival time, dose: 255.0 mg/kg/injection, schedule: Q01DX001 (ip), vehicle: saline with Tween-80, higher = longer survival
  T/C: 112 % of control
endpoint: median tumor weight (est.), dose: 30.0 mg/kg/injection, schedule: Q01DX001 (ip), vehicle: saline with Tween-80, higher = larger tumour
  T/C: 88 % of control
endpoint: median tumor weight (est.), dose: 45.0 mg/kg/injection, schedule: Q01DX001 (ip), vehicle: saline with Tween-80, higher = larger tumour
  T/C: 121 % of control
endpoint: median tumor weight (est.), dose: 67.0 mg/kg/injection, schedule: Q01DX001 (ip), vehicle: saline with Tween-80, higher = larger tumour
  T/C: 64 % of control
endpoint: median tumor weight (est.), dose: 101.0 mg/kg/injection, schedule: Q01DX001 (ip), vehicle: saline with Tween-80, higher = larger tumour
  T/C: 83 % of control
endpoint: median tumor weight (est.), dose: 152.0 mg/kg/injection, schedule: Q01DX001 (ip), vehicle: saline with Tween-80, higher = larger tumour
  T/C: 23 % of control
